Experimental data: US11401286B2 (Tetra Discovery Partners, LLC, priority 2012, dated 2022)
Where a name gives a salt, the structure may show the parent alone.

biological target: PDE4D7 (Homo sapiens (Human), UniProt Q08499); conditions: not given
Sequence (Q08499 other isoform, or with tags, fused parts or gaps): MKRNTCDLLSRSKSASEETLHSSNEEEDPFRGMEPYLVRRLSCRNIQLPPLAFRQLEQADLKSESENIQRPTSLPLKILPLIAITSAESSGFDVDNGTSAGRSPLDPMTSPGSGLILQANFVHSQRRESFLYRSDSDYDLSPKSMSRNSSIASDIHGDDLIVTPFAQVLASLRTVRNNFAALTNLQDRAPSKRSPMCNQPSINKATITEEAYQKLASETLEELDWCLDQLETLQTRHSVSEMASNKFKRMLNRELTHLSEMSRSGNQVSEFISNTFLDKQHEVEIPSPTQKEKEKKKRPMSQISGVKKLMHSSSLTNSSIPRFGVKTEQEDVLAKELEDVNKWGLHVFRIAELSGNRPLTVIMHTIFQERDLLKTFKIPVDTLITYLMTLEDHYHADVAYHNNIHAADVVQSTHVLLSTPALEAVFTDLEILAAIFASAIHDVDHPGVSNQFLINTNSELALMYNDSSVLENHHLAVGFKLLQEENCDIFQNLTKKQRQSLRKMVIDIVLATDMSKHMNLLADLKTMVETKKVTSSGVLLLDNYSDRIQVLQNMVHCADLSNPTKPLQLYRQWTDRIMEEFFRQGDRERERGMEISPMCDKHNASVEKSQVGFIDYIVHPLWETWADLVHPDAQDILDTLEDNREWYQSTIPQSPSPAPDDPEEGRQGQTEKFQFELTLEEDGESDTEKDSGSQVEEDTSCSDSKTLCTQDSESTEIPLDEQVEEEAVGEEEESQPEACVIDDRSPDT

Structure (SMILES) | IC50
CN(c1ccc(CC(N)=O)cc1)c1cc(-c2cccc(Cl)c2)nc2c1CCC2 [Example 118, 2-(4-((2-(3-Chlorophenyl)-6,7-dihydro-5H-cyclopenta[b]pyridin-4-yl)(methyl)amino)phenyl)acetamide] | > 1000 nM

same assay, conditions: read-out: PDE4D7 IC50; PDE4D7 without asterisk

Structure (SMILES) | IC50
Cc1cc(Nc2cc(-c3cccc(Cl)c3)nc3c2CCC3)ccc1CC#N [Example 109, 2-(4-((2-(3-Chlorophenyl)-6,7-dihydro-5H-cyclopenta[b]pyridin-4-yl)amino)-2-methylphenyl)acetonitrile hydrochloride] | > 1000 nM
FC(F)(F)Cc1ccc(Nc2cc(-c3cccc(Cl)c3)nc3c2CCC3)cc1 [Example 110, 2-(3-Chlorophenyl)-N-(4-(2,2,2-trifluoroethyl)phenyl)-6,7-dihydro-5H-cyclopenta[b]pyridin-4-amine hydrochloride] | > 1000 nM
OCCc1ccc(Nc2cc(-c3cccc(Cl)c3)nc3c2CCC3)cc1F [Example 113, 2-(4-((2-(3-Chlorophenyl)-6,7-dihydro-5H-cyclopenta[b]pyridin-4-yl)amino)-2-fluorophenyl)ethanol hydrochloride] | > 1000 nM
Clc1cccc(-c2cc(Nc3ccc(Cc4ncco4)cc3)c3c(n2)CCC3)c1 [Example 114, 2-(3-Chlorophenyl)-N-(4-(oxazol-2-ylmethyl)phenyl)-6,7-dihydro-5H-cyclopenta[b]pyridin-4-amine hydrochloride] | > 1000 nM
OCC(O)c1ccc(Nc2cc(-c3cccc(Cl)c3)nc3c2CCC3)cc1 (stereo not shown) [Example 115, 1-(4-((2-(3-Chlorophenyl)-6,7-dihydro-5H-cyclopenta[b]pyridin-4-yl)amino)phenyl)ethane-1,2-diol hydrochloride] | > 1000 nM
CC(Oc1ccc(Nc2cc(-c3cccc(Cl)c3)nc3c2CCC3)cc1)C(N)=O (stereo not shown) [Example 116, 2-(4-((2-(3-Chlorophenyl)-6,7-dihydro-5H-cyclopenta[b]pyridin-4-yl)amino)phenoxy)propanamide hydrochloride] | > 1000 nM
CC(CO)Oc1ccc(Nc2cc(-c3cccc(Cl)c3)nc3c2CCC3)cc1 (stereo not shown) [Example 117, 2-(4-((2-(3-Chlorophenyl)-6,7-dihydro-5H-cyclopenta[b]pyridin-4-yl)amino)phenoxy)propan-1-ol hydrochloride] | > 1000 nM
NC(=O)C(Cc1ccc(Nc2cc(-c3cccc(Cl)c3)nc3c2CCC3)cc1)C(N)=O [Example 122, 2-(4-((2-(3-Chlorophenyl)-6,7-dihydro-5H-cyclopenta[b]pyridin-4-yl)amino)benzyl)malonamide hydrochloride] | > 1000 nM
CC(Cc1ccc(Nc2cc(-c3cccc(Cl)c3)nc3c2CCC3)cc1)(C(N)=O)C(N)=O [Example 124, 2-(4-((2-(3-Chlorophenyl)-6,7-dihydro-5H-cyclopenta[b]pyridin-4-yl)amino)benzyl)-2-methylmalonamide hydrochloride] | > 1000 nM
CN(C(N)=O)c1ccc(Nc2cc(-c3cccc(Cl)c3)nc3c2CCC3)cc1 [Example 129, 1-(4-((2-(3-Chlorophenyl)-6,7-dihydro-5H-cyclopenta[b]pyridin-4-yl)amino)phenyl)-1-methylurea hydrochloride] | > 1000 nM
NC(=O)Cc1ccc(Cc2cc(OC3CCCC3)nc3c2CCC3)cc1 [Example 131, 2-(4-((2-(Cyclopentyloxy)-6,7-dihydro-5H-cyclopenta[b]pyridin-4-yl)methyl)phenyl)acetamide hydrochloride] | > 1000 nM
OCCc1ccc(Nc2cc(-c3ccc[nH]3)nc3c2CCC3)cc1 [Example 132, 2-(4-((2-(1H-Pyrrol-2-yl)-6,7-dihydro-5H-cyclopenta[b]pyridin-4-yl)amino)phenyl)ethanol hydrochloride] | > 1000 nM
NC(=O)Cc1ccc(Nc2cc(-c3ccc[nH]3)nc3c2CCC3)cc1 [Example 133, 2-(4-((2-(1H-Pyrrol-2-yl)-6,7-dihydro-5H-cyclopenta[b]pyridin-4-yl)amino)phenyl)acetamide hydrochloride] | > 1000 nM
NC(=O)Cc1ccc(Nc2cc(-c3cncc(Cl)c3)nc3c2CCC3)cc1 [Example 134, 2-(4-((2-(5-Chloropyridin-3-yl)-6,7-dihydro-5H-cyclopenta[b]pyridin-4-yl)amino)phenyl)acetamide hydrochloride] | > 1000 nM
NC(=O)Cc1ccc(Nc2cc(-c3cccc(Cl)c3)nc(C3CC3)c2)cc1 [Example 139, 2-(4-((2-(3-Chlorophenyl)-6-cyclopropylpyridin-4-yl)amino)phenyl)acetamide hydrochloride] | < 1000 nM
OCCc1ccc(Nc2cc(-c3cccc(Cl)c3)nc(C3CC3)c2)cc1 [Example 140, 2-(4-((2-(3-Chlorophenyl)-6-cyclopropylpyridin-4-yl)amino)phenyl)ethanol hydrochloride] | > 1000 nM
COC(=O)Cc1ccc(Cc2cc(-c3cccc(Cl)c3)nc(C(F)(F)F)c2)cc1 [Example 141, Methyl 2-(4-((2-(3-chlorophenyl)-6-(trifluoromethyl)pyridin-4-yl)methyl)phenyl)acetate] | > 1000 nM
OCCc1ccc(Cc2cc(-c3cccc(Cl)c3)nc(C(F)(F)F)c2)cc1 [Example 143, 2-(4-((2-(3-Chlorophenyl)-6-(trifluoromethyl)pyridin-4-yl)methyl)phenyl)ethanol] | > 1000 nM
NC(=O)Cc1ccc(Cc2cc(-c3cccc(Cl)c3)nc(C(F)(F)F)c2)cc1 [Example 144, 2-(4-((2-(3-Chlorophenyl)-6-(trifluoromethyl)pyridin-4-yl)methyl)phenyl)acetamide] | > 1000 nM
NC(=O)Cc1ccc(Nc2cc(-c3cccc(Cl)c3)nc(C(F)(F)F)c2)cc1 [Example 145, 2-(4-((2-(3-Chlorophenyl)-6-(trifluoromethyl)pyridin-4-yl)amino)phenyl)acetamide] | < 1000 nM
OCCc1ccc(Nc2cc(-c3cccc(Cl)c3)nc(C(F)(F)F)c2)cc1 [Example 146, 2-(4-((2-(3-Chlorophenyl)-6-(trifluoromethyl)pyridin-4-yl)amino)phenyl)ethanol] | < 1000 nM
OCCCc1ccc(Nc2cc(-c3cccc(Cl)c3)nc(C(F)(F)F)c2)cc1 [Example 147, 3-(4-((2-(3-Chlorophenyl)-6-(trifluoromethyl)pyridin-4-yl)amino)phenyl)propan-1-ol] | < 1000 nM
OCCc1ccc(Nc2cc(-c3ccc(Cl)cc3)nc3c2CCC3)cc1 [Example 149, 2-(4-((2-(4-Chlorophenyl)-6,7-dihydro-5H-cyclopenta[b]pyridin-4-yl)amino)phenyl)ethanol hydrochloride] | > 1000 nM

Next, values leading:

IC50 | Structure (SMILES)
< 1000 nM | NC(=O)C(CO)Cc1ccc(Nc2cc(-c3cccc(Cl)c3)nc3c2CCC3)cc1 (stereo not shown) [Example 108, 2-(4-((2-(3-Chlorophenyl)-6,7-dihydro-5H-cyclopenta[b]pyridin-4-yl)amino)benzyl)-3-hydroxypropanamide hydrochloride]
> 1000 nM | Cc1cc(Nc2cc(-c3cccc(Cl)c3)nc3c2CCC3)ccc1CC(N)=O [Example 111, 2-(4-((2-(3-Chlorophenyl)-6,7-dihydro-5H-cyclopenta[b]pyridin-4-yl)amino)-2-methylphenyl)acetamide hydrochloride]
> 1000 nM | NC(=O)Cc1ccc(Nc2cc(-c3cccc(Cl)c3)nc3c2CCC3)cc1F [Example 112, 2-(4-((2-(3-Chlorophenyl)-6,7-dihydro-5H-cyclopenta[b]pyridin-4-yl)amino)-2-fluorophenyl)acetamide hydrochloride]
> 1000 nM | NC(=O)CCc1ccc(Nc2cc(-c3cccc(Cl)c3)nc3c2CCC3)cc1 [Example 119, 3-(4-((2-(3-chlorophenyl)-6,7-dihydro-5H-cyclopenta[b]pyridin-4-yl)amino)phenyl)propanamide hydrochloride]
> 1000 nM | CNC(=O)Cc1ccc(Nc2cc(-c3cccc(Cl)c3)nc3c2CCC3)cc1 [Example 120, 2-(4-((2-(3-chlorophenyl)-6,7-dihydro-5H-cyclopenta[b]pyridin-4-yl)amino)phenyl)-N-methylacetamide hydrochloride]
< 1000 nM | CN(C)C(=O)Cc1ccc(Nc2cc(-c3cccc(Cl)c3)nc3c2CCC3)cc1 [Example 121, 2-(4-((2-(3-chlorophenyl)-6,7-dihydro-5H-cyclopenta[b]pyridin-4-yl)amino)phenyl)-N,N-dimethylacetamide hydrochloride]
> 1000 nM | NC(=O)Cc1ccc(Cc2cc(-c3cccc(Cl)c3)nc3c2CCC3)cc1 [Example 125, 2-(4-((2-(3-Chlorophenyl)-6,7-dihydro-5H-cyclopenta[b]pyridin-4-yl)methyl)phenyl)acetamide hydrochloride]
> 1000 nM | CC(C)(C(=O)O)c1ccc(Cc2cc(-c3cccc(Cl)c3)nc3c2CCC3)cc1 [Example 126, 2-(4-((2-(3-Chlorophenyl)-6,7-dihydro-5H-cyclopenta[b]pyridin-4-yl)methyl)phenyl)-2-methylpropanoic acid hydrochloride]
> 1000 nM | CC(C)(C(N)=O)c1ccc(Cc2cc(-c3cccc(Cl)c3)nc3c2CCC3)cc1 [Example 127, 2-(4-((2-(3-Chlorophenyl)-6,7-dihydro-5H-cyclopenta[b]pyridin-4-yl)methyl)phenyl)-2-methylpropanamide hydrochloride]
> 1000 nM | CC(C)(CO)c1ccc(Cc2cc(-c3cccc(Cl)c3)nc3c2CCC3)cc1 [Example 128, 2-(4-((2-(3-Chlorophenyl)-6,7-dihydro-5H-cyclopenta[b]pyridin-4-yl)methyl)phenyl)-2-methylpropan-1-ol hydrochloride]
> 1000 nM | NC(=O)CCCc1ccc(Nc2cc(-c3cccc(Cl)c3)nc3c2CCC3)cc1 [Example 130, 4-(4-((2-(3-Chlorophenyl)-6,7-dihydro-5H-cyclopenta[b]pyridin-4-yl)amino)phenyl)butanamide hydrochloride]
> 1000 nM | NC(=O)Cc1ccc(Nc2cc(-c3ccc(Cl)cc3)nc3c2CCC3)cc1 [Example 148, 2-(4-((2-(4-Chlorophenyl)-6,7-dihydro-5H-cyclopenta[b]pyridin-4-yl)amino)phenyl)acetamide hydrochloride]
> 1000 nM | NC(=O)Cc1ccc(Nc2cc(-c3ccc(F)c(Cl)c3)nc3c2CCC3)cc1 [Example 150, 2-(4-((2-(3-Chloro-4-fluorophenyl)-6,7-dihydro-5H-cyclopenta[b]pyridin-4-yl)amino)phenyl)acetamide hydrochloride]
